In ChEMBL document CHEMBL6087421, “Development of selective sigma-1 receptor ligands with antiallodynic activity: A focus on piperidine and piperazine scaffolds” (Eur J Med Chem, 2025):
In brackets after ≈: the same amount, converted by molar mass. Activity calls are given as the source filed them. No cut-off for these calls is given here.

Tests used:
HMC3 = assay: Cytotoxicity against human HMC3 cells assessed as reduction in cell viability at 0.1 to 30 uM incubated for 48 hrs by acridine orange staining based microplate reader analysis; assay type: toxicity; settings: hmc3, 48 h, dose 0.1-30 µM
Mus musculus [1] = assay: Antiallodynic activity in capsaicin-induced wild-type female CD-1 mouse at 5 to 30 mg/kg, sc measured after 45 mins relative to control; assay type: functional; settings: dose 5-30 mg/kg, 0.75 h
Mus musculus [2] = assay: Antihyperalgesic activity in PGE2-induced S1R knockout mouse at 60 mg/kg administered subcutaneously; assay type: functional, organism-based; settings: route sc
Mus musculus [3] = assay: Antiallodynic activity in capsaicin-induced wild-type female CD-1 mouse assessed as maximum antiallodynic effect at 30 mg/kg, sc co-administered with PRE-084 measured after 45 mins; assay type: functional, organism-based
Mus musculus [4] = assay: Antiallodynic activity in capsaicin-induced wild-type female CD-1 mouse assessed as maximum antiallodynic effect administered subcutaneously and co-administered with PRE-084 measured after 45 mins relative to control; assay type: functional; settings: route sc, 0.75 h
Mus musculus [5] = assay: Antihyperalgesic activity in PGE2-induced wild type female CD-1 mouse assessed as increase in response latency at 60 mg/kg, sc and measured by paw pressure test; assay type: functional, organism-based
Mus musculus [6] = assay: Antiallodynic activity in capsaicin-induced wild-type female CD-1 mouse administered subcutaneously and measured after 45 min; assay type: functional, organism-based; settings: route sc
[7] = biological target: T1, Sigma non-opioid intracellular receptor 1 (Homo sapiens, UniProt Q99720)
T1 sequence (Q99720 whole entry): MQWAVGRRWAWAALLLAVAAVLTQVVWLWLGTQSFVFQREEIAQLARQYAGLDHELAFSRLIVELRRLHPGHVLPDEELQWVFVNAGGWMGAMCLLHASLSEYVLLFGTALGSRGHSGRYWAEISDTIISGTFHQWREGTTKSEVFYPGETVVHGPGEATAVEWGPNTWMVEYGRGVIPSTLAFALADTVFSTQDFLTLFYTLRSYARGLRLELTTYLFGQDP
Description: Binding affinity to S1R (unknown origin) assessed as inhibition constant

[8] = biological target: Sigma intracellular receptor 2 (Homo sapiens, UniProt Q5BJF2); assay: Binding affinity to S2R (unknown origin) assessed as inhibition constant
Sigma intracellular receptor 2, sequence (Q5BJF2 whole entry): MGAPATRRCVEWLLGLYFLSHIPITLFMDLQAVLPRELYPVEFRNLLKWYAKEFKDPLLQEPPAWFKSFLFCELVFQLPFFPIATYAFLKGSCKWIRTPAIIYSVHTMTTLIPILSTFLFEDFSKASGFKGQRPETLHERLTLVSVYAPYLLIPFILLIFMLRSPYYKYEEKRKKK

[9] = biological target: T1, Sigma non-opioid intracellular receptor 1; assay: Displacement of [3H]-(+)-PTZ from S1R (unknown origin) assessed as inhibition constant by radioligand binding assay
[10] = Aqueous solubility of compound by UHPLC-PDA analysis; assay type: physicochemical; settings: buffer
Mus musculus [11] = assay: Antiallodynic activity in capsaicin-induced wild-type female CD-1 mouse at 10 mg/kg, sc measured after 45 mins relative to control; assay type: functional; settings: 0.75 h
Mus musculus [12] = assay: Antiallodynic activity in capsaicin-induced wild-type female CD-1 mouse assessed as maximum antiallodynic effect at 10 mg/kg, sc co-administered with PRE-084 measured after 45 mins; assay type: functional, organism-based
Mus musculus [13] = assay: Antihyperalgesic activity in PGE2-induced S1R knockout mouse at 10 mg/kg administered subcutaneously; assay type: functional, organism-based; settings: route sc
[14] = Cytotoxicity against human WS1 cells assessed as reduction in cell viability incubated for 48 hrs by acridine orange staining based microplate reader analysis; assay type: toxicity; settings: ws1, 48 h
[15] = biological target: Voltage-gated inwardly rectifying potassium channel KCNH2 (Homo sapiens, UniProt Q12809); assay: Inhibition of hERG in CHO-K1 cells; assay type: toxicity, cell-based
Voltage-gated inwardly rectifying potassium channel KCNH2, sequence (Q12809 whole entry): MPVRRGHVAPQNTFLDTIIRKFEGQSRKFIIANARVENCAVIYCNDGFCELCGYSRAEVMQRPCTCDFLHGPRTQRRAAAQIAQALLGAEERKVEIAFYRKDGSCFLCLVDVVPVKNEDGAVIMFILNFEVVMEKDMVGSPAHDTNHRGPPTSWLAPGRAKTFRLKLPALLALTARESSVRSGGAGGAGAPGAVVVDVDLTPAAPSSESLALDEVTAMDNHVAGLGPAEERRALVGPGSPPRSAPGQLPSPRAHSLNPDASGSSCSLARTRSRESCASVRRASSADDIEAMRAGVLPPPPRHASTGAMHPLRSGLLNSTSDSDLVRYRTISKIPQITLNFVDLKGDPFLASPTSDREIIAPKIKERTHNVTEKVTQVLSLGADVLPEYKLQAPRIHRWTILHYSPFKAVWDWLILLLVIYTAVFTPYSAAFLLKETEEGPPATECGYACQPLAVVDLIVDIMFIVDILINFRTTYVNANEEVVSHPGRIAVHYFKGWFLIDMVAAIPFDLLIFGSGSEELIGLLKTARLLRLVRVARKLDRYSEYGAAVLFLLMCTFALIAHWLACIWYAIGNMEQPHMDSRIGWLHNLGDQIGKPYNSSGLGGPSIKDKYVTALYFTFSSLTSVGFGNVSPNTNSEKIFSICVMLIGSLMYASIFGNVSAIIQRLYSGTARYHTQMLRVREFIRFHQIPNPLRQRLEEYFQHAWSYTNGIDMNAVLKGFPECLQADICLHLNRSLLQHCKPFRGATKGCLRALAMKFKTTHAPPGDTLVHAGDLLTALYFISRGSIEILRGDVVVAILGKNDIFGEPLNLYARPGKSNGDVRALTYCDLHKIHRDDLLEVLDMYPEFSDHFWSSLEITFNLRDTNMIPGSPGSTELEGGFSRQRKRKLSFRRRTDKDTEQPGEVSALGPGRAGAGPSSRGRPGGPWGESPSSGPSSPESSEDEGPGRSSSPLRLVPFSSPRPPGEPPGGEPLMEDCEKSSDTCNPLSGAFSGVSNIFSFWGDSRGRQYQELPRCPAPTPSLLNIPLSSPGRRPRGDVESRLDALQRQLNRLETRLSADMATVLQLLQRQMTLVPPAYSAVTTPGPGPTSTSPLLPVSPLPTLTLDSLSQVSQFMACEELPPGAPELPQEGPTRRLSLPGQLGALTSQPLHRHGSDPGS

Mus musculus [16] = assay: Antiallodynic activity in capsaicin-induced wild-type female CD-1 mouse at 5 to 10 mg/kg, sc measured after 45 mins; assay type: functional, organism-based; settings: dose 5-10 mg/kg
[17] = Octanol/water partition coefficient, log P of the compound; assay type: physicochemical
[18] = Lipophilicity, log D of the compound in Octanol/PBS buffer at pH 7.4 at 5 to 150 uM by UV-Vis spectrophotometric analysis; assay type: physicochemical; settings: dose 5-150 µM
[19] = Stability of compound in phosphate buffer at pH 7.4 assessed as half life; assay type: physicochemical
Mus musculus [20] = assay: Antihyperalgesic activity in PGE2-induced wild type female CD-1 mouse assessed as increase in response latency at 10 mg/kg, sc and measured by paw pressure test; assay type: functional, organism-based
Mus musculus [21] = assay: Antiallodynic activity in capsaicin-induced wild-type female CD-1 mouse at 2 to 10 mg/kg, sc measured after 45 mins; assay type: functional, organism-based; settings: dose 2-10 mg/kg
[22] = Lipophilicity, log P of the compound; assay type: physicochemical; settings: octanol/water
[23] = Lipophilicity, log D of the compound at pH 7.4; settings: buffer

Question: Which Activity (HMC3) does the source give for `CC(C)=CCN1CC[C@@]2(C)c3cc(O)ccc3C[C@@H]1[C@@H]2C` here?
Answer: Its Activity is “Non-toxic”.

Question: What does the source list for `Cc1cc(OCCN2CCOCC2)nn1-c1ccc2ccccc2c1.Cl`?
Answer: Activity (Mus musculus [1]): 100%; Activity (Mus musculus [2]): inactive; Activity (Mus musculus [3]): Active; Activity (Mus musculus [4]): 100%; Activity (Mus musculus [5]): Active; Activity (Mus musculus [6]): Dose-dependent-effect

Question: What does the source list for `CN1CCN(CCc2ccc(Cl)c(Cl)c2)CC1`?
Answer: Ki [7]: 14 nM; Ki [8]: 6.5 nM; Activity (HMC3): Non-toxic; Ki [9]: 14 nM

Question: Which Ki [9] does the source give for `CCN(CC)C(=O)C(c1ccccc1)N(C)C1CCN(CCc2ccccc2)CC1` (racemic) here?
Answer: Its Ki is 108 nM.

Question: Which results are given for `CCOC(=O)C(c1ccccc1)N(C)C1CCN(Cc2ccccc2)CC1` (racemic)?
Answer: solubility [10]: 1870 µg/mL (≈ 5.1 mM); Activity (Mus musculus [11]): 100%; Activity (Mus musculus [12]): Active; Activity (Mus musculus [13]): inactive; Activity [14]: Non-toxic; IC50 [15]: 1600 nM; Activity (Mus musculus [16]): Active; Activity (HMC3): Non-toxic; logP [17]: 1.79; logD at up to 150 µM [18]: 1.72; half-life [19]: 1.59 h; Activity (Mus musculus [20]): Active; Activity (Mus musculus [6]): Dose-dependent-effect

Question: Which Activity (Mus musculus [11]) does the source give for `CCOC(=O)C(c1ccccc1)N(C)C1CCN(CCc2ccccc2)CC1` (racemic) here?
Answer: The Activity was 100%.

Question: What about the Activity (Mus musculus [12]) of the same molecule?
Answer: The Activity was “Active”.

Question: And the Activity (Mus musculus [13])?
Answer: The Activity was “inactive”.

Question: And the Activity (HMC3)?
Answer: Its Activity is “Non-toxic”.

Question: And the Activity (Mus musculus [21])?
Answer: Its Activity is “Active”.

Question: What about the Ki [9] of the same molecule?
Answer: Its Ki is 9.9 nM.

Question: What about the Activity (Mus musculus [20]) of the same molecule?
Answer: Its Activity is “Active”.

Question: And the Activity (Mus musculus [6])?
Answer: Its Activity is “Dose-dependent-effect”.

Question: With `COc1cc2c(cc1OC)C(=O)C(CC1CCN(Cc3ccccc3)CC1)C2` (configuration not stated) [DONEPEZIL] as the molecule, how does the Ki [7] read?
Answer: The Ki was 15 nM.

Question: What does the source list for `O=C(CCCN1CCC(O)(c2ccc(Cl)cc2)CC1)c1ccc(F)cc1` [HALOPERIDOL]?
Answer: logP [22]: 4.03; logD [23]: 3.99

Question: For `COc1ccc(CCN2CCN(CCCc3ccccc3)CC2)cc1OC` [[11C]SA4503], which Ki [8] is on record?
Answer: The Ki was 90 nM.
